Experimental findings from patent US11845752B2, “Substituted imidazo[1,5-a]pyrazines for the treatment of hepatitis B” (ALIGOS THERAPEUTICS, INC., priority 2020, dated 2023) are described below.

Bounds are passed on as bounds.

The subject of one assay is HBV. The assay can be described thus: HBV-DNA antiviral assay using HepG2.117 cells (intracellular HBV DNA by qPCR). The format is cell-based, HBV genotype D. The settings on record: HBV DNA inhibition, 3 days incubation, read-out: EC50. How it is done:
The following assay procedure describes the HBV antiviral assay, using HepG2.117 cells, which carry a stably integrated genotype D HBV genome under the control of a Tet-off promoter, and intracellular HBV DNA quantification as endpoint. Cell viability is assessed in parallel by measuring the intracellular ATP content using ATPlite (Perkin Elmer).
On day 0, HepG2.117 cells (which are maintained in routine cell culture with doxycycline present in the medium at a final concentration of 1 μg/mL) were seeded in 96-well plates (white with clear bottom) at a density of 2.0×10^4 cells/well (0.1 mL/well) in medium without doxycycline to induce pgRNA transcription and subsequent formation of HBV particles. The cells were incubated at 37° C. and 5% CO2.
On day 1, medium was removed from each well, the test articles were diluted in culture medium without doxcycyline and 100 μL was added to cell culture wells (9 concentrations, 4-fold dilution). For each plate, 6 untreated (merely DMSO) wells were included. The final concentration of DMSO in the culture medium was 2%. Each plate was prepared in duplicate (one for HBV DNA extraction, one for ATPlite measurement). The cells were incubated at 37° C. and 5% CO2 for 3 days.
On day 4, cell viability was assessed using ATPlite and cell lysates were prepared for HBV DNA extraction and subsequent quantification by qPCR.
Medium was removed from each well and 100 μL of 0.33% NP-40 in H2O was added to each well. Plates were sealed, incubated at 4° C. for 5 mins, vortexed extensively and centrifuged briefly. Next, 35 μL of lysate was added to 65 μL QuickExtract DNA Extraction Solution (Epicentre) in a PCR plate for each well. PCR plate was incubated at 65° C. for 6 mins, 98° C. for 2 mins and finally cooled to 4° C. HBV DNA was then quantified by qPCR with HBV-specific primers and probes as specified in Table 1 using the Bio-Rad SSOAdvanced Universal Probes Supermix on a CFX96 machine (Bio-Rad). The PCR cycle program consisted of 95° C. for 3 mins, followed by 40 cycles at 95° C. for 10 sec and 60° C. for 30 sec.
A DNA standard was prepared by dilution of an IDT gBlock corresponding to the amplicon with concentrations ranging from 10^2 to 10^8 copies/input (i.e. per 4 μL) and used to generate a standard curve by plotting Cq values vs. HBV DNA standard concentration. The quantity of HBV DNA in each sample was determined by interpolating from the standard curve.
Cell viability was calculated as follows: % Cell viability=(luminescence value of test sample)/(average luminescence value of 2% DMSO control)×100%. HBV DNA inhibition was calculated as follows: 100−(HBV DNA copy number of test sample)/(average HBV DNA copy number of 2% DMSO control)×100%. No normalization to entecavir was required due to the excellent dynamic window of this assay. The CC50, EC50 and EC90 values were determined by dose-response curves fitted using non-linear regression.
In general terms: In qPCR the cycle at which signal appears reflects the starting amount.
What is called EC50 is the concentration needed to bring the measured effect to its halfway point. Take `CC1Cn2c(c(C(=O)NCc3ccccc3-c3c[nH]cn3)n(-c3ccc(OC4CC4)cc3)c2=O)CN1C(=O)c1ccc(Br)c(Cl)c1` (single isomer, unassigned) [Compound 44b]: the EC50 is less than 50 nM. On to `Cc1nc2cc(-n3c(C(=O)NCc4ccccc4-c4ccncn4)c4n(c3=O)CC(C)N(C(=O)c3ccc(Br)c(Cl)c3)C4)ccc2o1` (single isomer, unassigned) [Compound 46b], for which the EC50 is less than 50 nM.

In the case of `CC1Cn2c(c(C(=O)NCc3ccccc3-c3ccccn3)n(-c3ccc(N4CC5(CN(C)C5)C4)cc3)c2=O)CN1C(=O)c1ccc(Br)c(C(F)(F)F)c1` (single isomer, unassigned) [Compound 77b], the EC50 was 50 to 500 nM. The same measure, in the same setting: under `CC1Cn2c(c(C(=O)NCc3c(F)cccc3-c3cccnn3)n(-c3ccc(OC4CC4)cc3)c2=O)CN1C(=O)c1ccc(Br)c(C(F)(F)F)c1` (single isomer, unassigned) [Compound 50b] stands less than 50 nM; under `CC1Cn2c(c(C(=O)NCc3ccccc3-c3ccncn3)n(-c3ccc4oc(N)nc4c3)c2=O)CN1C(=O)c1ccc(Br)c(C(F)(F)F)c1` (single isomer, unassigned) [Compound 93a, (6R*)-2-(2-amino-1,3-benzoxazol-5-yl)-7-[4-bromo-3-(trifluoromethyl)benzoyl]-6-methyl-3-oxo-N-{[2-(pyrimidin-4-yl)phenyl]methyl}-5H,6H,8H-imidazo[1,5-a]pyrazine-1-carboxamide], 500 to 5000 nM; under `CC1Cn2c(c(C(=O)NCc3ccccc3-c3ccncn3)n(-c3ccc(N4CC5(CN(C)C5)C4)cc3)c2=O)CN1C(=O)c1ccc(Br)c(C(F)(F)F)c1` (single isomer, unassigned) [Compound 73a, (6R*)-7-[4-bromo-3-(trifluoromethyl)benzoyl]-6-methyl-2-(4-{6-methyl-2,6-diazaspiro[3.3]heptan-2-yl}phenyl)-3-oxo-N-{[2-(pyrimidin-4-yl)phenyl]methyl}-5H,6H,8H-imidazo[1,5-a]pyrazine-1-carboxamide], 500 to 5000 nM.

The assay is the same for the next values; noted with them: Hepatitis B virus, HepG2.117, 72 h, HBV DNA inhibition, 3 days incubation, read-out: EC50.
Regarding `C[C@@H]1Cn2c(c(C(=O)NCc3ccccc3-c3ccccn3)n(-c3ccc(OC[C@](C)(O)C(F)(F)F)cc3)c2=O)CN1C(=O)c1ccc(Br)c(C(F)(F)F)c1` (stereo in doubt) [Compound 90a, rac-(6R)-7-[4-bromo-3-(trifluoromethyl)benzoyl]-6-methyl-3-oxo-N-[[2-(2-pyridyl)phenyl]methyl]-2-[4-[rac-(2S)-3,3,3-trifluoro-2-hydroxy-2-methyl-propoxy]phenyl]-6,8-dihydro-5H-imidazo[1,5-a]pyrazine-1-carboxamide], the EC50 was 50 to 500 nM. For the molecule `CC1Cn2c(c(C(=O)NCc3ccccc3-c3nnco3)n(-c3ccc(N4CC5(CN(C)C5)C4)cc3)c2=O)CN1C(=O)c1ccc(Br)c(C(F)(F)F)c1` (single isomer, unassigned) [Compound 112a], the EC50 was in the range of 500 to 5000 nM.

Regarding `C[C@H]1Cn2c(c(C(=O)NCc3ccccc3-c3cccnn3)n(-c3ccc(OC[C@@H](O)C(F)(F)F)cc3)c2=O)CN1C(=O)c1ccc(Br)c(C(F)(F)F)c1` (mixture of isomers) [Compound 66b, (6SR)-7-[4-bromo-3-(trifluoromethyl)benzoyl]-6-methyl-3-oxo-N-[(2-pyridazin-3-ylphenyl)methyl]-2-[4-[(2R)-3,3,3-trifluoro-2-hydroxy-propoxy]phenyl]-6,8-dihydro-5H-imidazo[1,5-a]pyrazine-1-carboxamide], the EC50 lay within 50 to 500 nM.

Take `O=C(NCc1ccccc1)c1c2n(c(=O)n1-c1ccc(N3CC(O)(C(F)(F)F)C3)cc1)CCN(C(=O)c1ccc(Br)c(Cl)c1)C2` [Compound 118, N-benzyl-7-(4-bromo-3-chloro-benzoyl)-2-[4-[3-hydroxy-3-(trifluoromethyl)azetidin-1-yl]phenyl]-3-oxo-6,8-dihydro-5H-imidazo[1,5-a]pyrazine-1-carboxamide]: the 50% effective concentration (EC50) was in the range of 50 to 500 nM. As for `O=C(NCc1ccccc1)c1c2n(c(=O)n1-c1ccc(N3CC4CCC(C3)O4)cc1)CCN(C(=O)c1ccc(Br)c(Cl)c1)C2` [Compound 121, N-benzyl-7-(4-bromo-3-chloro-benzoyl)-2-[4-(8-oxa-3-azabicyclo[3.2.1]octan-3-yl)phenyl]-3-oxo-6,8-dihydro-5H-imidazo[1,5-a]pyrazine-1-carboxamide], the EC50 was in the range of 50 to 500 nM. `CC1Cn2c(c(C(=O)NCc3ccccc3-c3ncccn3)n(-c3ccc(OC4CC4)cc3)c2=O)CN1C(=O)c1ccc(Br)c(C(F)(F)F)c1` (single isomer, unassigned) [Compound 59a]: the EC50 was less than 50 nM.

For `C[C@@H]1Cn2c(c(C(=O)NCc3ccccc3-c3ccncn3)n(-c3ccc4c(cnn4CC(F)(F)F)c3)c2=O)CN1C(=O)c1ccc(Br)c(C(F)(F)F)c1` (stereo in doubt) [Compound 72a, rac-(6R)-7-[4-bromo-3-(trifluoromethyl)benzoyl]-6-methyl-3-oxo-N-[(2-pyrimidin-4-ylphenyl)methyl]-2-[1-(2,2,2-trifluoroethyl)indazol-5-yl]-6,8-dihydro-SH-imidazo[1,5-a]pyrazine-1-carboxamide], the EC50 is less than 50 nM. As for `C[C@@H](O)COc1ccc(-n2c(C(=O)NCc3ccccc3-c3ncccn3)c3n(c2=O)C[C@H](C)N(C(=O)c2ccc(Br)c(C(F)(F)F)c2)C3)cc1` (mixture of isomers) [Compound 64b, (6SR)-7-[4-bromo-3-(trifluoromethyl)benzoyl]-2-[4-[(2R)-2-hydroxypropoxy]phenyl]-6-methyl-3-oxo-N-[(2-pyrimidin-2-ylphenyl)methyl]-6,8-dihydro-5H-imidazo[1,5-a]pyrazine-1-carboxamide], the EC50 was in the range of 50 to 500 nM. Regarding `CC1Cn2c(c(C(=O)NCc3ccccc3-c3ccncn3)n(-c3ccc(OC4CC4)cc3)c2=O)CN1C(=O)c1ccc(Br)c(C(F)(F)F)c1` (single isomer, unassigned) [Compound 13a, 7-[4-bromo-3-(trifluoromethyl)benzoyl]-2-[4-(cyclopropoxy)phenyl]-6-methyl-3-oxo-N-[(2-pyrimidin-4-ylphenyl)methyl]-6,8-dihydro-5H-imidazo[1,5-a]pyrazine-1-carboxamide], the EC50 lay in the range of 50 to 500 nM. As to `Cc1nnc(-c2ccccc2CNC(=O)c2c3n(c(=O)n2-c2ccc(OC4CC4)cc2)CC(C)N(C(=O)c2ccc(Br)c(Cl)c2)C3)o1` (single isomer, unassigned) [Compound 1a, (S*)-7-(4-bromo-3-chlorobenzoyl)-2-(4-cyclopropoxyphenyl)-6-methyl-N-(2-(5-methyl-1,3,4-oxadiazol-2-yl)benzyl)-3-oxo-2,3,5,6,7,8-hexahydroimidazo[1,5-a]pyrazine-1-carboxamide], the EC50 fell in the range of 50 to 500 nM.

In the case of `C[C@H](COc1ccc(-n2c(C(=O)NCc3ccccc3-c3ncccn3)c3n(c2=O)C[C@@H](C)N(C(=O)c2ccc(Br)c(C(F)(F)F)c2)C3)cc1)N(C)C` (single isomer, unassigned) [Compound 97a], the EC50 fell in the range of 50 to 500 nM.

As to `C[C@@H]1Cn2c(c(C(=O)NCc3ccccc3-c3ccncn3)n(-c3ccc(OCC4(O)CC4)cc3)c2=O)CN1C(=O)c1ccc(Br)c(C(F)(F)F)c1` (racemic) [Compound 74a, rac-(6R)-7-[4-bromo-3-(trifluoromethyl)benzoyl]-2-[4-[(1-hydroxycyclopropyl)methoxy]phenyl]-6-methyl-3-oxo-N-[(2-pyrimidin-4-ylphenyl)methyl]-6,8-dihydro-SH-imidazo[1,5-a]pyrazine-1-carboxamide], the EC50 lay within 50 to 500 nM.
